Read-outs that look alike come from different tables or passages of the source.
Key:
B. cereus spores [1] = assay type: cell-based, Bacillus cereus ATCC 11778
murine macrophages [2] = assay type: cell-based, C57BL/6 mice
murine macrophages [3] = assay type: cell-based, C57BL/6 mice; remark: listed apart in the source
murine macrophages [4] = experiment: Comet assay (tail vs. head) and phagocyte diameter; assay type: cell-based, C57BL/6 mice; conditions: for diameter of phagocytes upon uptaking glycoconjugate-coated spores: compared to macrophages only, spores only, glycoconjugate alone; for uptake of coated spores and spore-induced cell death: glycoconjugate-coated spores, B; for uptake of coated spores and spore-induced cell death / effect of glycoconjugate-treated spores on murine macrophages (Comet assay): FIG. 10A; for diameter of phagocytic cells, glycoconjugate alone: glycoconjugates alone, dilutions 10^0, 10^-2, 10^-4; for effect of glycoconjugate-treated spores on murine macrophages (Comet assay): macrophages exposed to treated spores, 10B; for effect of glycoconjugate alone on macrophages (Comet assay): macrophages treated with glycoconjugate only, FIG. 10E, 10F
Procedure: Possible induction of apoptosis was determined by Comet assay (FIG. 10) using Trevigen (Gaithersburg, Md.) Comet assay kit and analyzed under epifluorescence microscope (FIG. 10). Nuclei with damaged DNA have the appearance of a comet with a bright head and a tail, whereas nuclei with undamaged DNA appear round, with no tail. Ration tail vs. head was measured in order to determine apoptosis (FIG. 10).

B. cereus spores [5] = assay type: cell-based, Bacillus cereus ATCC 11778; remark: listed apart in the source
human macrophages = assay type: cell-based
murine macrophages [6] = tested on: murine macrophages

Substance	destruction of spores (B. cereus spores [1]) [%]	dose at which 50% of the spores were killed (B. cereus spores [1]) [pg/mL]	LDH release/production (murine macrophages [2]) [%]	induction of macrophage NO production (murine macrophages [3])	macrophage NO production (extent) (murine macrophages [3])	diameter of phagocytes upon uptaking glycoconjugate-coated spores (murine macrophages [4])	uptake of coated spores and spore-induced cell death (murine macrophages [4])	diameter of phagocytic cells, glycoconjugate alone (murine macrophages [4])	effect of glycoconjugate-treated spores on murine macrophages (Comet assay) (murine macrophages [4])	effect of glycoconjugate alone on macrophages (Comet assay) (murine macrophages [4])	destruction of spores, following spores' exposure (B. cereus spores [5]) [%]	destruction of spores, prior to exposure (B. cereus spores [5]) [%]	destruction of the spores (in words) (B. cereus spores [5])	spores killed, following exposure condition (B. cereus spores [5]) [%]	spores killed, prior to and during exposure conditions (B. cereus spores [5])	human macrophage NO production (human macrophages)	macrophage viability (murine macrophages [6])	destruction of the spores (in words) (B. cereus spores [1])
GalNAcα1-3 GalNAcβ-PAA-flu [GalNAcα1-3GalNAcβ-PAA-flu]	86.4	100	11.9	induced macrophage NO production	less stimulatory	increased	stimulates the uptake of coated spores and protect from spore-induced cell death	do not affect the diameter of phagocytic cells	pro-apoptotic effects	do not induce death	76.4	65.5	almost total destruction of the spores	~50	70-80%	stimulate human macrophage nitric oxide (NO) production	up to 87%	
Galα1-3 GalNAcα-PAA-flu [Galα1-3GalNAcα-PAA-flu]	89.4	1	8.9	induced macrophage NO production	doubled	increased	stimulates the uptake of coated spores and protect from spore-induced cell death	do not affect the diameter of phagocytic cells	pro-apoptotic effects	do not induce death							≤ 97.8%	almost total destruction of the spores
